The source of these data is ChEMBL document CHEMBL1134281, “Monosaccharide-linked inhibitors of O(6)-methylguanine-DNA methyltransferase (MGMT): synthesis, molecular modeling, and structure-activity relationships” (J Med Chem, 2001).

This experiment addresses T1, Methylated-DNA--protein-cysteine methyltransferase (Homo sapiens, UniProt P16455).
T1 sequence (P16455 whole entry): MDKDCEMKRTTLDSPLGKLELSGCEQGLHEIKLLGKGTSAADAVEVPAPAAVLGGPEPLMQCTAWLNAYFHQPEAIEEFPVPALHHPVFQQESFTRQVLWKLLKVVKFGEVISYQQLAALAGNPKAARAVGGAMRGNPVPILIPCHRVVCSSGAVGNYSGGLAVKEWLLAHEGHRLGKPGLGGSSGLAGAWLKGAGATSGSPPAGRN
The experiment is described as follows: In vitro inhibition of MGMT using cell free extracts from HeLa S3 cells.

With `Nc1nc(OCc2ccccc2)c2[nH]nnc2n1`, the half-maximal inhibitory concentration (IC50) turned out to be 0.038 µM.

As to `Nc1nc(OCc2cc(Br)cs2)c2[nH]cnc2n1` [LOMEGUATRIB], the IC50 stood at 0.009 µM.

One may read the IC50 as the midpoint of a concentration-inhibition curve. Read a low IC50 as inhibition by little substance.
